Data published in ChEMBL document CHEMBL1127689, “Novel 4-(aryloxy)tetrahydropyridine analogs of MPTP as monoamine oxidase A and B substrates” (J Med Chem, 1994).

Experiment: Relative specificity for human MAO-A and bovine MAO-B

Row | SMILES | Selectivity
1 | CN1CC=C(Cc2ccccc2)CC1 | 0.11
2 | CCCCc1ccc(OC2=CCN(C)CC2)cc1 | 1.54
3 | CN1CC=C(Oc2ccc3ccccc3c2)CC1 | 2.21
4 | CN1CC=C(c2ccccc2)CC1 | 0.27
5 | CN1CC=C(Oc2ccc(-c3ccccc3)cc2)CC1 | 4.72
6 | CN1CC=C(Oc2ccc(Cl)cc2Cl)CC1 | 2.47

The next lines start with the values.

Row | Selectivity | SMILES
7 | 24.7 | CN1CC=C(Cc2cccc3ccccc23)CC1
8 | 2.77 | CN1CC=C(Oc2cccc3ccccc23)CC1
9 | 10.8 | CN1CC=C(Cc2ccc3ccccc3c2)CC1
10 | 0.57 | CN1CC=C(Oc2ccccc2)CC1
11 | 2.17 | CN1CC=C(Oc2ccc(C(C)(C)C)cc2)CC1
